Tests used:
[1] = molecular target: T1, menin/MLL (terbium chelate-labeled menin, FITC-MBM1 peptide) (Homo sapiens, UniProt O00255, T541A); test: Menin/MLL homogenous time-resolved fluorescence (HTRF) assay; format: binding; details: 30 min incubation
T1 construct: Menin (a.a 1-610-6xhis tag, 2.3 mg/mL in 20 mM Hepes)
T1 sequence (O00255 with tags, fused parts or gaps T541A): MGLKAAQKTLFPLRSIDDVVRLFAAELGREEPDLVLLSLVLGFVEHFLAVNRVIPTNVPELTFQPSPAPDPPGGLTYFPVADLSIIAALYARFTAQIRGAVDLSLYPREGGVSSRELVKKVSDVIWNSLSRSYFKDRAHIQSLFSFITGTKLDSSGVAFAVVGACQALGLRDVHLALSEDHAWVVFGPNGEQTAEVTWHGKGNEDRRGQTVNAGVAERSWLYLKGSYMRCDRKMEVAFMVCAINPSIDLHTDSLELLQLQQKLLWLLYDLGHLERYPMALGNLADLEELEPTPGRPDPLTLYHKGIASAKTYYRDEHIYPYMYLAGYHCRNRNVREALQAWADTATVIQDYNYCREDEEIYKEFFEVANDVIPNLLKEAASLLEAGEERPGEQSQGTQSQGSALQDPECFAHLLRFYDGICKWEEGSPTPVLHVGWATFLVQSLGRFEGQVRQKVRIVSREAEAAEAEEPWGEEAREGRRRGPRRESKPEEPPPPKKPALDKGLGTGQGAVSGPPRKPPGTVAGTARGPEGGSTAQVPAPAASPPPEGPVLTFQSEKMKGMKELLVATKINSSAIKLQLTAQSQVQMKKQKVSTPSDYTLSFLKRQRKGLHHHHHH
Description: 1) Menin/MLL Homogenous Time-Resolved Fluorescence (HTRF) Assay
To an untreated, white 384-well microtiter plate was added 40 nL 200× test compound in DMSO and 4 μL 2× terbium chelate-labeled menin (vide infra for preparation) in assay buffer (40 mM Tris HCl, pH 7.5, 50 mM NaCl. 1 mM DTT (dithiothreitol) and 0.05% Pluronic F-127). After incubation of test compound and terbium chelate-labeled menin for 30 min at ambient temperature, 4 μL 2×FITC-MBM1 peptide (FITC-β-alanine-[…]-NH2) (“FITC” means fluorescein isothiocyanate) in assay buffer was added, the microtiter plate centrifuged at 1000 rpm for 1 min and the assay mixtures incubated for 15 min at ambient temperature. The relative amount of menin FITC-MBM1 complex present in an assay mixture is determined by measuring the homogenous time-resolved fluorescence (HTRF) of the terbium/FITC donor/acceptor fluorphore pair using an EnVision microplate reader (ex. 337 nm/terbium em. 490 nm/FITC em. 520 nm) at ambient temperature. The degree of fluorescence resonance energy transfer (the HTRF value) is expressed as the ratio of the fluorescence emission intensities of the FITC and terbium fluorophores (F^em520 nm/F^em490 nm). The final concentrations of reagents in the binding assay are […] terbium chelate-labeled menin, 75 nM FITC-MBM1 peptide and 0.5% DMSO in assay buffer. Dose-response titrations of test compounds are conducted using an 11 point, four-fold serial dilution scheme, starting typically at 10 μM.
Compound potencies were determined by first calculating % inhibition at each compound concentration according to equation 1:
% inhibition=((HC−LC)−(HTRF^compound−LC))/(HC−LC))*100 (Eqn 1)
Where LC and HC are the HTRF values of the assay in the presence or absence of a saturating concentration of a compound that competes with FITC-MBM1 for binding to menin, and HTRF^compound is the measured HTRF value in the presence of the test compound. HC and LC HTRF values represent an average of at least 10 replicates per plate.
% inhibition=Bottom+(Top−Bottom)/(1+10^((log/C50−log[cmpd])*h)) (Eqn 2)
Where Bottom and Top are the lower and upper asymptotes of the dose-response curve, respectively, IC50 is the concentration of compound that yields 50% inhibition of signal and h is the Hill coefficient.
Preparation of Terbium cryptate labeling of Menin: Menin (a.a 1-610-6xhis tag, 2.3 mg/mL in 20 mM Hepes (2-[4-(2-Hydroxyethyl)-1-piperazinyl]ethane sulfonic acid), 80 mM NaCl, 5 mM DTT (Dithiothreitol), pH 7.5) was labeled with terbium cryptate as follows. 200 μg of Menin was buffer exchanged into 1×Hepes buffer. 6.67 μM Menin was incubated with 8-fold molar excess NHS (N-hydroxysuccinimide)-terbium cryptate for 40 minutes at room temperature. Half of the labeled protein was purified away from free label by running the reaction over a NAP5 column with elution buffer (0.1M Hepes, pH 7+0.1% BSA (bovine serum albumin)). The other half was eluted with 0.1 M phosphate buffered saline (PBS), pH7. 400 μl of eluent was collected for each, aliquoted and frozen at −80° C. The final concentration of terbium-labeled Menin protein was 115 μg/mL in Hepes buffer and 85 μg/mL in PBS buffer, respectively.

MEIS1 mRNA expression = MEIS1 mRNA expression assay (Quantigene Singleplex) in MOLM14 cells; format: cell-based, human; details: Homo sapiens, MOLM-14, 48 h, 48 hours incubation
Description: 2b) MEIS1 mRNA Expression Assay
MEIS1 mRNA expression upon treatment of compound was examined by Quantigene Singleplex assay (Thermo Fisher Scientific). This technology allows for direct quantification of mRNA targets using probes hybridizing to defined target sequences of interest and the signal is detected using a Multimode plate reader Envision (PerkinElmer). The MOLM14 cell line was used for this experiment. Cells were plated in 96-well plates at 3,750 cells/well in the presence of increasing concentrations of compounds. After incubation of 48 hours with compounds, cells were lysed in lysis buffer and incubated for 45 minutes at 55° C. Cell lysates were mixed with human MEIS specific capture probe or human RPL28 (Ribosomal Protein L28) specific probe as a normalization control, as well as blocking probes. Cell lysates were then transferred to the custom assay hybridization plate (Thermo Fisher Scientific) and incubated for 18 to 22 hours at 55° C. Subsequently, plates were washed to remove unbound materials followed by sequential addition of preamplifiers, amplifiers, and label probe. Signals (═gene counts) were measured with a Multimode plate reader Envision. IC50S were calculated by dose-response modelling using appropriate software. For all non-housekeeper genes response equal counts corrected for background and relative expression. For each sample, each test gene signal (background subtracted) was divided by the normalization gene signal (RPL28: background subtracted). Fold changes were calculated by dividing the normalized values for the treated samples by the normalized values for the DMSO treated sample. Fold changes of each target gene were used for the calculation of IC50S.

Row | SMILES | IC50 [1] | IC50 (MEIS1 mRNA expression)
1 | Cc1cncc2c1c(C[C@@H]1CCN(C(C)C3CCOCC3)C1)cn2-c1ccc(F)cc1C(=O)N(C)C(C)C (mixture of isomers) [Compound 48] | 0.06 nM | 20 nM
2 | Cc1cncc2c1c(C[C@H]1CCN(CC3CCCC(=O)N3)C1)cn2-c1ccc(F)cc1C(=O)N(C)C(C)C (mixture of isomers) [Compound 89] | 0.183 nM | ~895 nM
3 | Cc1cncc2c1c(C[C@@H]1CCN(C3CCNC(=O)CC3)C1)cn2-c1ccc(F)cc1C(=O)N(C)C(C)C (mixture of isomers) [Compound 139] | 0.119 nM | 444 nM
4 | CC(=O)N1CCCC(N2CC[C@@H](Cc3cn(-c4ccc(F)cc4C(=O)N(C)C(C)C)c4cncc(C)c34)C2)C1 (mixture of isomers) [Compound 215] | 0.291 nM | 299 nM
5 | CC(=O)N1CCCC(N2CC[C@@H](Cc3cn(-c4ccc(F)cc4C(=O)N(C)C(C)C)c4cncc(C)c34)C2)CC1 (mixture of isomers) [Compound 216] | 0.187 nM | 100 nM
6 | CC(=O)N1CCCC(N2CC[C@H](Cc3cn(-c4ccc(F)cc4C(=O)N(C)C(C)C)c4cncc(C)c34)C2)CC1 (mixture of isomers) [Compound 222] | 0.103 nM | 259 nM
7 | CC(=O)N1CCC(CN2CC[C@H](Cc3cn(-c4ccc(F)cc4S4(=O)=NCCC4)c4cncc(C)c34)C2)CC1 (mixture of isomers) [Compound 224] | 8.66 nM | ~3880 nM
8 | CC(=O)NCC(C1CCN(C(C)=O)CC1)N1CC[C@@H](Cc2cn(-c3ccc(F)cc3C(=O)N(C)C(C)C)c3cncc(C)c23)C1 (mixture of isomers) [Compound 225] | 0.637 nM | 340 nM
9 | CC(=O)N1CCC(N2CC[C@@H](Cc3cn(-c4ccc(F)cc4C(=O)N(C)C(C)C)c4cncc(C)c34)C2)C(C)(C)C1 (mixture of isomers) [Compound 234] | ~0.068 nM | 18 nM
10 | CC(=O)N1CCC(N2CC[C@@H](Cc3cn(-c4ccc(F)cc4C(=O)N(C)C(C)C)c4cncc(C)c34)C2)C(CO)C1 (mixture of isomers) [Compound 248] | 0.255 nM | 11 nM
11 | CCN(C(=O)c1cc(F)ccc1-n1cc(C[C@@H]2CCN(CC3CCNC(=O)CC3)C2)c2c(C)cncc21)C(C)C (mixture of isomers) [Compound 254] | 0.071 nM | 19 nM
12 | COCCN(C)CCC[C@H](C(C)C)N1CC[C@H](Cc2cn(-c3ccc(F)cc3C(=O)N(C)C(C)C)c3cncc(C)c23)C1 (single isomer, unassigned) [Compound 2a] | 0.024 nM | 36 nM
13 | CC(=O)N1CCN(CCC[C@H](C(C)C)N2CC[C@@H](Cc3cn(-c4ccc(F)cc4C(=O)N(C)C(C)C)c4cncc(C)c34)C2)CC1 (single isomer, unassigned) [Compound 8a] | 0.024 nM | 13 nM
14 | CC(=O)N1CCN(CCC[C@@H](C(C)C)N2CC[C@@H](Cc3cn(-c4ccc(F)cc4C(=O)N(C)C(C)C)c4cncc(C)c34)C2)CC1 (single isomer, unassigned) [Compound 8b] | ~7.3 nM | 44 nM
15 | CC(=O)N1CCN(CCC[C@@H](C(C)C)N2CC[C@H](Cc3cn(-c4ccc(F)cc4C(=O)N(C)C(C)C)c4cncc(C)c34)C2)CC1 (single isomer, unassigned) [Compound 9b] | 0.975 nM | 42 nM
16 | CC(=O)N1C[C@@H]2CN(CCC[C@H](C(C)C)N3CC[C@@H](Cc4cn(-c5ccc(F)cc5C(=O)N(C)C(C)C)c5cncc(Cl)c45)C3)C[C@H]2C1 (single isomer, unassigned) [Compound 18a] | 0.019 nM | 5 nM
17 | CC(=O)N1C[C@@H]2CN(CCC[C@@H](C(C)C)N3CC[C@@H](Cc4cn(-c5ccc(F)cc5C(=O)N(C)C(C)C)c5cncc(Cl)c45)C3)C[C@H]2C1 (single isomer, unassigned) [Compound 18b] | 0.017 nM | 110 nM

Reference: US20230250096A1, “SUBSTITUTED PHENYL-1H-PYRROLO[2,3-c] PYRIDINE DERIVATIVES” (Janssen Pharmaceutica NV, priority 2021, published 2023)
